Measured values from US8748466B2, “Isoxazole derivatives useful as antibacterial agents” (Pfizer Inc., priority 2011, dated 2014).
≈ marks a conversion by molar mass, not a printed value.

Experiments:
Type in all cases: cell-based
[1] = test system: Escherichia coli EC-1: VOGEL, mouse virulent; assay: MIC determination (CLSI), EC-1; settings: read-out: EC-1 MIC
Method: (§1) The in vitro antibacterial activity of compounds described in the Examples was evaluated by minimum inhibitory concentration (MIC) testing according to Clinical and Laboratory Standards Institute (CLSI). See: Clinical and Laboratory Standards Institute. Methods for Dilution Antimicrobial Susceptibility Tests for Bacteria that Grow Aerobically; Approved Standard-Eighth Edition. CLSI document M7-A8 [ISBN 1-56238-689-1]. Clinical and Laboratory Standards Institute, 940 West Valley Road, Suite 1400, Wayne, Pa. 19087-1898 USA, 2006; also Clinical and Laboratory Standards Institute. Performance Standards for Antimicrobial Susceptibility Testing; Twentieth Informational Supplement. CLSI document M100-S20 [ISBN1-56238-716-2]. Clinical and Laboratory Standards Institute.
(§2) The MIC determination is a standard laboratory method for evaluating the antibacterial activity of a compound. The MIC represents the lowest drug concentration that inhibits visible growth of bacteria following overnight incubation. […] Typically, the drug concentration range is broken down into 2-fold increments (e.g., 0.06 μg/mL, 0.12 μg/mL. 0.25 μg/mL, 0.50 μg/mL, 1.0 μg/mL, etc.) and the various drug concentrations are all individually incubated overnight with approximately the same number of bacteria. The MIC is then determined by visually inspecting the drug effect at each concentration, and identifying the lowest drug concentration that has inhibited bacterial growth as compared to the drug free control. Typically, bacteria continue to grow at drug concentrations lower than the MIC and don't grow at concentrations at and above the MIC.
(§3) The MIC values described in Tables 4 and 5 below were derived from assays wherein each test compound was evaluated in duplicate. In cases where the duplicate values varied by 0-2-fold, the lower of the two values was reported below. Generally speaking, if the duplicate values varied by more than 2-fold, the assay was considered non-valid and was repeated until the variation between duplicate runs was 2-fold. In line with the CLSI guidelines referred to above, both control organisms and reference compounds were utilized in each MIC assay to provide proper quality control. MIC values generated with these control organisms and reference compounds were required to fall within a defined range for the assay to be considered valid and be included herein. Those skilled in the art will recognize that MIC values can and do vary from experiment to experiment. Generally speaking, it should be recognized that MIC values often vary +/−2-fold from experiment to experiment. While a single MIC is reported for each compound and each microorganism, the reader should not conclude that each compound was only tested once. Several of the compounds were subjected to multiple tests. The data reported in Tables 4 and 5 is reflective of the compound's relative activity and different MICs may have been generated on these occasions in line with the guidelines described above.
(§4) The following bacterial strains were used in these MIC determinations:
2) Escherichia coli EC-1: VOGEL, mouse virulent labeled as EC-1 in Tables 4 and 5;

[2] = test system: Pseudomonas aeruginosa UC12120 (mouse virulent); assay: MIC determination (CLSI), PA-UC12120; settings: UC12120, read-out: PA-UC12120 MIC
Method: as §1, §2, §3, §4
1) Pseudomonas aeruginosa UC12120 (mouse virulent) labeled as PA-UC12120 in Tables 4 and 5;

[3] = test system: Acinetobacter baumannii/haemolyticus: Multidrug-resistant clinical isolate AB-3167; assay: MIC determination (CLSI), AB-3167; settings: overnight incubation, duplicate, lower of the two values reported
Method: as §1, §2, §3, §4
3) Acinetobacter baumannii/haemolyticus: Multidrug-resistant clinical isolate labeled as AB-3167 in Tables 4 and 5;

## CC(CCc1cc(-c2ccc(F)cc2F)no1)(C(=O)NO)S(C)(=O)=O (racemic) [Example 50, 4-[3-(2,4-difluorophenyl)isoxazol-5-yl]-N-hydroxy-2-methyl-2-(methylsulfonyl)butanamide]
[1]
  MIC: 16 µg/mL (≈ 42.7 µM)
[2]
  MIC: 1 µg/mL (≈ 2.67 µM)
[3]
  MIC: > 64 µg/mL

## COc1ccc(C(=O)NCc2cc(CCC(C)(C(=O)NO)S(C)(=O)=O)no2)cc1 (racemic) [Example 11, N-({3-[4-(hydroxyamino)-3-methyl-3-(methylsulfonyl)-4-oxobutyl]isoxazol-5-yl}methyl)-4-methoxybenzamide]
[1]
  MIC: > 64 µg/mL
[2]
  MIC: > 64 µg/mL
[3]
  MIC: > 64 µg/mL

## CC(CCc1cc(-c2ccc(Cl)c(Cl)c2)on1)(C(=O)NO)S(C)(=O)=O (racemic) [Example 20, 4-[5-(3,4-dichlorophenyl)isoxazol-3-yl]-N-hydroxy-2-methyl-2-(methylsulfonyl)butanamide]
[1]
  MIC: 4 µg/mL (≈ 9.82 µM)
[2]
  MIC: 1 µg/mL (≈ 2.46 µM)
[3]
  MIC: 16 µg/mL (≈ 39.3 µM)

## CC(CCc1cc(CN(CCOc2ccccc2)C2CC2)on1)(C(=O)NO)S(C)(=O)=O (racemic) [Example 18, 4-(5-{[cyclopropyl(2-phenoxyethyl)amino]methyl}isoxazol-3-yl)-N-hydroxy-2-methyl-2-(methylsulfonyl)butanamide]
[1]
  MIC: > 64 µg/mL
[2]
  MIC: > 64 µg/mL
[3]
  MIC: > 64 µg/mL

## CC(CCc1cc(C(=O)NC2CCCCC2)no1)(C(=O)NO)S(C)(=O)=O (racemic) [Example 45, N-cyclohexyl-5-[4-(hydroxyamino)-3-methyl-3-(methylsulfonyl)-4-oxobutyl]isoxazole-3-carboxamide]
[1]
  MIC: > 64 µg/mL
[2]
  MIC: > 64 µg/mL
[3]
  MIC: > 64 µg/mL

## CC(CCc1cc(COc2ccc3c(c2)OCO3)on1)(C(=O)NO)S(C)(=O)=O (racemic) [Example 26, 4-{5-[(1,3-benzodioxol-5-yloxy)methyl]isoxazol-3-yl}-N-hydroxy-2-methyl-2-(methylsulfonyl)butanamide]
[1]
  MIC: 16 µg/mL (≈ 38.8 µM)
[2]
  MIC: 4 µg/mL (≈ 9.7 µM)
[3]
  MIC: > 64 µg/mL

## CC(CCc1cc(CCCCCCCCCO)on1)(C(=O)NO)S(C)(=O)=O (racemic) [Example 15, N-hydroxy-4-[5-(9-hydroxynonyl)isoxazol-3-yl]-2-methyl-2-(methylsulfonyl)butanamide]
[1]
  MIC: 16 µg/mL (≈ 39.6 µM)
[2]
  MIC: 4 µg/mL (≈ 9.89 µM)
[3]
  MIC: > 64 µg/mL

## COc1cccc(-c2cc(CC[C@](C)(C(=O)NO)S(C)(=O)=O)no2)c1F [Example 2, (2R)-4-[5-(2-Fluoro-3-methoxyphenyl)isoxazol-3-yl]-N-hydroxy-2-methyl-2-(methylsulfonyl)butanamide]
[1]
  MIC: 16 µg/mL (≈ 41.4 µM)
[2]
  MIC: 16 µg/mL (≈ 41.4 µM)
[3]
  MIC: 32 µg/mL (≈ 82.8 µM)

## Cc1cccc(-c2cc(CCC(C)(C(=O)NO)S(C)(=O)=O)no2)c1 (racemic) [Example 13, N-hydroxy-2-methyl-4-[5-(3-methylphenyl)isoxazol-3-yl]-2-(methylsulfonyl)butanamide]
[1]
  MIC: 32 µg/mL (≈ 90.8 µM)
[2]
  MIC: 1 µg/mL (≈ 2.84 µM)
[3]
  MIC: 64 µg/mL (≈ 182 µM)

## COc1ccc(-c2cc(CC[C@](C)(C(=O)NO)S(C)(=O)=O)no2)c(F)c1 [Example 5, (2R)-4-[5-(2-fluoro-4-methoxyphenyl)isoxazol-3-yl]-N-hydroxy-2-methyl-2-(methylsulfonyl)butanamide]
[1]
  MIC: 4 µg/mL (≈ 10.4 µM)
[2]
  MIC: 0.25 µg/mL (≈ 0.647 µM)
[3]
  MIC: > 64 µg/mL

## COc1cccc(-c2cc(CCC(C)(C(=O)NO)S(C)(=O)=O)no2)c1 (racemic) [Example 29, N-hydroxy-4-[5-(3-methoxyphenyl)isoxazol-3-yl]-2-methyl-2-(methylsulfonyl)butanamide]
[1]
  MIC: 64 µg/mL (≈ 174 µM)
[2]
  MIC: 8 µg/mL (≈ 21.7 µM)
[3]
  MIC: > 64 µg/mL

## COc1ccccc1SCc1cc(CCC(C)(C(=O)NO)S(C)(=O)=O)no1 (racemic) [Example 19, N-hydroxy-4-(5-{[(2-methoxyphenyl)thio]methyl}isoxazol-3-yl)-2-methyl-2-(methylsulfonyl)butanamide]
[1]
  MIC: > 64 µg/mL
[2]
  MIC: 64 µg/mL (≈ 154 µM)
[3]
  MIC: > 64 µg/mL
